Data on five compounds can be found in patent US9212206B1, “4-Fluoro-Thio-containing inhibitors of APP2, compositions thereof and method of use” (priority 2014, dated 2015).

For assay [1], the target named is Human aminopeptidase P2 (APP2) (Homo sapiens (Human), UniProt O43895). The assay is described as follows: Determination of human APP2 activity (quenched fluorescent substrate). The assay is classed as biochemical. The following applies: for IC50: purified human kidney APP2, substrate 1 μM (=Km), pH 7.4, 30° C., read-out: Binding affinity (IC50) APP2; for IC50 ratio ACE/APP2: selectivity, ratio of IC50s for ACE/APP2. The protocol:
Human kidney tissue, which was obtained from the Cooperative Human Tissue Network, was the source of purified human APP2 as used herein. APP2 enzyme activity was measured during purification as described in Example 2B below. The membrane-bound APP2 was purified from human kidney tissue using the following steps: 1) kidney tissue was homogenized in 30 volumes of buffer containing Triton X-100 detergent and centrifuged; 2) the pellet was washed and suspended in buffer containing octyl-β-D-glucopyranoside detergent, and then centrifuged; 3) the supernatant was treated with 10 units of phosphatidylinositol-specific phospholipase C (Invitrogen, Eugene, Ga.) to remove the hydrophobic part of the glycosyl-phosphatidylinositol lipid membrane anchor from APP2, and then dialyzed; 4) the dialysate was passed through an octyl-Sepharose chromatography column; 5) the eluent was centrifuged and then concentrated by ultrafiltration in Amicon Ultra-15 Ultracel-10 k filters (Millipore Corp, Billerica, Mass.); 6) the retentate was dialyzed and applied to a HiTrap Q-Sepharose XL ion exchange chromatography column. Human APP2 enzyme activity was eluted with a linear KCl salt gradient.
Human aminopeptidase P2 (APP2) enzyme activity was determined using the internally quenched fluorescent substrate: H-Lys(2-aminobenzoyl)-Pro-Pro-p-nitroanilide (Bachem, Torrance, Calif.) at 1 μM (=Km) for inhibitor studies and 5 μM for enzyme purification assays. The assay buffer was 0.1 M HEPES, pH 7.4, and the assay temperature was 30° C. Cleavage of the substrate by the enzyme produces an increase in fluorescence due to the release of H-Lys(2-aminobenzoyl). Enzyme rates were determined in an F. fluorescence plate reader (Molecular Devices, Sunnyvale, Calif.) using an excitation wavelength of 320 nm and an emission wavelength of 405 nm. The binding affinity of an inhibitor was estimated and expressed as IC50 values (the concentration that inhibits activity by 50%).

Assay [2] concerns Male CD-1(ICR) mice. The assay is described as follows: Bilateral renal ischemia/reperfusion in mice. Format: in vivo, mouse. The note with it: for reduction of blood urea nitrogen (BUN) compared to saline: i.v. 5 min before reperfusion after 25 min ischemia, BUN after 2 days of reperfusion, apstatin 1.8 mg/kg, ST-115 10 μg/kg; for mice that died before the prespecified 2-day BUN measurement point: saline control 29% died early. As to the method: Previous studies have shown that the prototype APP2 inhibitor apstatin can greatly reduce ischemia/reperfusion damage in the heart. […] In this study, blood flow to both kidneys of the mouse was blocked for 25 min., producing ischemia. Blood flow was then restored (reperfusion). In order to determine the effects of inhibiting APP2 in this model of kidney damage, apstatin, ST-115, or saline (control) were administered intravenously 5 min. before reperfusion. After two days of reperfusion, blood urea nitrogen (BUN, a marker of kidney dysfunction) was measured. In FIG. 1, data are presented as the mean±standard error of the mean. Each drug was separately compared to the control by the unpaired t-test with Welch's correction. ** Apstatin vs. Saline, p<0.01; *** ST-115 vs. Saline, p<0.001.
Male CD-1(ICR) mice (36-47 g) from Harlan Laboratories (Indianapolis, Ind.) were used. Each mouse was anesthetized by the subcutaneous injection of 50 mg/kg sodium pentobarbital (Akorn Inc, Lake Forest, Ill.) and placed on a 37° C. warmer. For surgery, the abdomen was shaved and the mouse was moved to a warming plate with feedback temperature control (TCAT-2DF, Harvard Apparatus Holliston, Mass.). The body temperature of the mouse was maintained at 36.9±0.1° C. throughout the procedure. The skin of the abdomen was washed with alcohol, and a midline incision was made to expose the kidneys. After removing adipose tissue from the renal pedicles, a microaneurysm clamp was placed on each pedicle to block blood flow to/from both kidneys for 25 min. (referred to as the ischemia phase). At the 20 min. point, 0.15 ml of either saline or saline containing drug (apstatin or ST-115) was administered intravenously through the femoral vein. The doses were 1.8 mg/kg for apstatin and 10 μg/kg for ST-115. At 5 minutes after drug injection, the clamps were removed from the pedicles to restore blood flow to/from the kidneys (the reperfusion phase). After confirming reperfusion, a subcutaneous injection of saline was administered in the upper thigh for rehydration, and the incision was sutured closed. Regulated temperature control was maintained for at least the first 0.5 hours of reperfusion. The mouse was then placed on a 37° C. warmer to recover from the anesthetic and then moved to the home cage. After 2 days of reperfusion, the mouse was sacrificed by exsanguination. The blood was allowed to clot and then centrifuged to obtain serum. The serum was assayed for its concentration of urea (Blood Urea Nitrogen—BUN), a marker of kidney damage, using a kit from Stanbio (Boerne, Tex.). […] The BUN data points (20) were analyzed by comparing the values for each drug with those of the saline control using the unpaired t-test with Welch's correction (Graphpad Prism statistical package, La Jolla, Calif.).

In assay [3] the target is Human recombinant angiotensin-converting enzyme (hrACE) (Homo sapiens (Human), UniProt P12821). Put plainly: Determination of human ACE activity (quenched fluorescent substrate ES005). The note with it: for IC50: hrACE, substrate below Km, pH 7.4, 30° C., read-out: Binding affinity (IC50) ACE. Format: biochemical. The protocol: Human recombinant angiotensin-converting enzyme (hrACE) was obtained from R&D Systems (Minneapolis, Minn.). Its enzyme activity was determined using the internally quenched fluorescent substrate ES005: (7-methoxycoumarin-4-yl)acetyl-Arg-Pro-Pro-Gly-Phe-Ser-Ala-Phe-(2,4-dinitrophenyl)-Lys (R&D Systems, Minneapolis, Minn.). The assay buffer was 0.1 M HEPES, pH 7.4, and the temperature was 30° C. The substrate concentration was below Km (≦40 μM). Enzyme rates were determined in an Fmax fluorescence plate reader (Molecular Devices, Sunnyvale, Calif.) using an excitation wavelength of 320 nm and an emission wavelength of 405 nm. The binding affinity of an inhibitor was estimated and expressed as IC50 values (the concentration that inhibits activity by 50%).
Chain of Human recombinant angiotensin-converting enzyme (hrACE) (P12821 30-1306): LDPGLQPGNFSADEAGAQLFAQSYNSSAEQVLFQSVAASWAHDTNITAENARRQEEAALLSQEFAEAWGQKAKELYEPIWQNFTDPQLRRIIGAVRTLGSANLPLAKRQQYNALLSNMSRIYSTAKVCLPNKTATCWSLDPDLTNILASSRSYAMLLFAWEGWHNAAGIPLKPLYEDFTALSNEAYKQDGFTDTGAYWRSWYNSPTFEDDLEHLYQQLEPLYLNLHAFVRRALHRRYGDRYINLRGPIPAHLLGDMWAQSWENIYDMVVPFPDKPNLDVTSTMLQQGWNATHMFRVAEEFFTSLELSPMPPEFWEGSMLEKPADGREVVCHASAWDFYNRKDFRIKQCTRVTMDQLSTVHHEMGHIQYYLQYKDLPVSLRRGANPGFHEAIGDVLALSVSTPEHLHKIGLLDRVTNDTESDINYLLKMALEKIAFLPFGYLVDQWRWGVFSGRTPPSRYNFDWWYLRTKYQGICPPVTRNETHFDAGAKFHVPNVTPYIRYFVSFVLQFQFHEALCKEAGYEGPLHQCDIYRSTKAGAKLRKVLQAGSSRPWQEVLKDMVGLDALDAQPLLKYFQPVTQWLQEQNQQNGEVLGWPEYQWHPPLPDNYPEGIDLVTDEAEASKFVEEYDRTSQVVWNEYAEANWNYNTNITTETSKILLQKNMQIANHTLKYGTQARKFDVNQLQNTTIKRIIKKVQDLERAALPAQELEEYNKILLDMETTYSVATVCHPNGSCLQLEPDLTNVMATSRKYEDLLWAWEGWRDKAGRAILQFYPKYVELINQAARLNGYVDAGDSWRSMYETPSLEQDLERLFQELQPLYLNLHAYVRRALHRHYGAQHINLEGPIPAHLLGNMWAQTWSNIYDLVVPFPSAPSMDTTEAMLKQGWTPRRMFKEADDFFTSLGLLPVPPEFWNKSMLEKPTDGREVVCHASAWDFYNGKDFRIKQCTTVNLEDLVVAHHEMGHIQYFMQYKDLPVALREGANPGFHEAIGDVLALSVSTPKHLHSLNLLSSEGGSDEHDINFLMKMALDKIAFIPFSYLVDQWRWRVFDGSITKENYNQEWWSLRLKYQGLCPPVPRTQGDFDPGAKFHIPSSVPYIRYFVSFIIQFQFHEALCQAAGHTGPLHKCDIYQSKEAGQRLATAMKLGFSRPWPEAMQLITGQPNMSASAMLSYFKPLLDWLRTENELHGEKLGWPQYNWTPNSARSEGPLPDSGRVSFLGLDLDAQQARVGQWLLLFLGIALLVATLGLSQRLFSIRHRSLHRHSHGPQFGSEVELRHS

Assay [4] has as its system isolated perfused heart. The following applies: ischemia/reperfusion (Ersahin et al. 1999); cited from earlier work.

Chain of Human aminopeptidase P2 (APP2) (O43895 22-674): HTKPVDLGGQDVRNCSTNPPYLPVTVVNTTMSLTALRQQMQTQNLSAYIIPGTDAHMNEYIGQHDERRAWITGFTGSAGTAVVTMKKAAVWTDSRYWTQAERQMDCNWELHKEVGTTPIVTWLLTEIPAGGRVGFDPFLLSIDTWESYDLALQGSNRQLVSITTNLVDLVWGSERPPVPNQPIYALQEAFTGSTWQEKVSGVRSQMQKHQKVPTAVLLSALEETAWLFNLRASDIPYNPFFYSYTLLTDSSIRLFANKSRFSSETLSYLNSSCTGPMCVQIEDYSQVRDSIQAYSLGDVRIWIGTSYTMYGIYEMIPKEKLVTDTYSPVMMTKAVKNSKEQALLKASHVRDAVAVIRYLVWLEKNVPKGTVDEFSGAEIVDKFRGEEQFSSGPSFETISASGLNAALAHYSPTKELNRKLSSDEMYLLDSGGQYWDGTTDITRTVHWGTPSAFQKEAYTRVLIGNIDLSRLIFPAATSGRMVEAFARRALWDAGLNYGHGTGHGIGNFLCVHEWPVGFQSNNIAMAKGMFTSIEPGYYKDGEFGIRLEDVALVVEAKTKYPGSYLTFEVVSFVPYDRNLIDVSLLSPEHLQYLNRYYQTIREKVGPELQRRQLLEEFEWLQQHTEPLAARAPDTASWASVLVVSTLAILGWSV

Take `CC(C)C[C@H](S)C(=O)N1C[C@@H](F)C[C@H]1C(=O)N1CCC[C@H]1C(=O)N1CC[C@@H](C(=O)O)C1` [Formula III, [(S)-2-mercapto-4-methylpentanoyl]-4(S)-fluoro-Pro-Pro-[(3R)-β-Pro]-OH]: in assay [1], the “IC50 for human APP2” value came out at 3.7 nM/L, the IC50 came out at 3.7 nM and the “IC50 ratio ACE/APP2” value was 18,000. Moreover, in assay [2], the “reduction of blood urea nitrogen (BUN) compared to saline” value turned out to be 56% and the “mice that died before the prespecified 2-day BUN measurement point” value was “no apstatin or ST-115 treated mice died early”. Also, in assay [3], the “IC50 for human ACE” value is given as 68,000 nM/L and the half-inhibitory concentration (IC50) was determined as 68000 nM.
For `CC(C)C[C@H](S)C(=O)N1CCC[C@H]1C(=O)N1CCC[C@H]1C(=O)N(C)[C@@H](C)C(=O)O` [Formula VII], in assay [1], the IC50 was 3.9 nM and the “IC50 ratio ACE/APP2” value was 160. In addition, the IC50 in assay [3] was found to be 640 nM.
On to `CC(C)C[C@H](S)C(=O)N1CCC[C@H]1C(=O)N1CCC[C@H]1C(=O)N1CCC[C@@H]1C(=O)O` [Formula VI], for which the IC50 stood at 9.7 nM in assay [1] and 12000 nM in assay [3]. Also, the “IC50 ratio ACE/APP2” value in assay [1] is reported as 1,200.
For `CC(C)C[C@H](S)C(=O)N1CCC[C@H]1C(=O)N1CCC[C@H]1C(=O)N1CC[C@H](C(=O)O)C1` [Formula V] the same measures were 26 nM, 49000 nM and 1,900.
Take `C[C@H](NC(=O)[C@@H]1CCCN1C(=O)[C@@H]1CCCN1C(=O)[C@@H](O)[C@H](N)Cc1ccccc1)C(N)=O` [apstatin]: the “reduction of cardiac damage” value in assay [4] is on record as 74%. For the same compound, in assay [2], the “reduction of blood urea nitrogen (BUN) compared to saline” value turned out to be 49% and the “mice that died before the prespecified 2-day BUN measurement point” value is listed as “no apstatin or ST-115 treated mice died early”.

Broadly, the IC50 is the concentration that inhibits the measured activity by half.
